In brackets after ≈: the same amount, converted by molar mass.

The values that follow come from patent US11034650B2, “Compounds useful for treating a Mannheimia haemolytica or Histophilus somni infection” (Intervet Inc., priority 2016, dated 2021).

Format in all cases: cell-based
In experiment [1] the test system is Mannheimia haemolytica MH 6357 (M7/2, reference strain, cattle infection strain). The experiment in a line: MIC, broth-microdilution (CLSI VET01-A4), strain MH 6357. As to conditions: Mannheimia haemolytica strain MH 6357, broth-microdilution; unit assumed. Summed up: (§1)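 Two-fold serial dilutions of each compound were prepared, bacteria were grown in them, and plates were then inspected visually. No turbidity at the lowest concentration defined the MIC.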

The test system of experiment [2] is Mannheimia haemolytica MH 6374 (ATCC 33396, reference strain). In words: MIC, broth-microdilution (CLSI VET01-A4), strain MH 6374. As to conditions: Mannheimia haemolytica strain MH 6374, broth-microdilution; unit assumed. In outline:
as §1
(In general: Dilution methods test growth across graded concentrations, often in twofold steps.)

Experiment [3] concerns Mannheimia haemolytica MH 10720 (154, BRD field isolate). The experiment in a line: MIC, broth-microdilution (CLSI VET01-A4), strain MH 10720. As to conditions: Mannheimia haemolytica strain MH 10720, broth-microdilution; unit assumed. In outline:
as §1

For experiment [4], the system named is Mannheimia haemolytica MH 12587 (1071, BRD field isolate, macrolide-resistance: erm+, E+). In words: MIC, broth-microdilution (CLSI VET01-A4), strain MH 12587. As to conditions: Mannheimia haemolytica strain MH 12587, broth-microdilution; unit assumed. Summed up: as §1
Experiment [5] concerns Mannheimia haemolytica MH 13065 (XB0446-6003.9, BRD field isolate). In words: MIC, broth-microdilution (CLSI VET01-A4), strain MH 13065. As to conditions: Mannheimia haemolytica strain MH 13065, broth-microdilution; unit assumed. Summed up: as §1
Experiment [6] concerns Mannheimia haemolytica MH 13093 (XB0472-6014.1, BRD field isolate). The experiment in a line: MIC, broth-microdilution (CLSI VET01-A4), strain MH 13093. As to conditions: Mannheimia haemolytica strain MH 13093, broth-microdilution; unit assumed. Summed up:
as §1

The subject of experiment [7] is Pasteurella multocida PM 6267 (P 2225 (L386), reference strain, mouse infection strain). The experiment in a line: MIC, broth-microdilution (CLSI VET01-A4), strain PM 6267. As to conditions: Pasteurella multocida strain PM 6267, broth-microdilution; unit assumed. Summed up:
as §1

The subject of experiment [8] is Pasteurella multocida PM 6391 (ATCC 43137, reference strain). The experiment in a line: MIC, broth-microdilution (CLSI VET01-A4), strain PM 6391. As to conditions: Pasteurella multocida strain PM 6391, broth-microdilution; unit assumed. In outline: as §1
The test system of experiment [9] is Pasteurella multocida PM 10775 (080130003051, BRD field isolate). The experiment in a line: MIC, broth-microdilution (CLSI VET01-A4), strain PM 10775. As to conditions: Pasteurella multocida strain PM 10775, broth-microdilution; unit assumed. In outline: as §1
Experiment [10] concerns Pasteurella multocida PM 12080 (IV102277-0093, BRD field isolate). In words: MIC, broth-microdilution (CLSI VET01-A4), strain PM 12080. As to conditions: Pasteurella multocida strain PM 12080, broth-microdilution; unit assumed. Summed up: as §1

As to `CC(C)(O)[C@H](NC(=O)c1ccc(C#Cc2ccc(CN3CCOCC3)nc2)cc1)C(=O)NO` [Compound 326], in [1], the MIC MH 6357 is 3.1 µg/mL (≈ 6.85 µM). This compound came in with an MIC MH 6374 in experiment [2] of 6.3 µg/mL (≈ 13.9 µM). The MIC MH 10720 in experiment [3] was 0.8 µg/mL (≈ 1.77 µM). The compound further gave an MIC MH 12587 in experiment [4] of 12.5 µg/mL (≈ 27.6 µM). Moreover, the MIC MH 13065 in experiment [5] was 3.1 µg/mL (≈ 6.85 µM). In addition, the MIC MH 13093 in experiment [6] amounted to 6.3 µg/mL (≈ 13.9 µM). Further, the MIC PM 6267 in experiment [7] was 3.1 µg/mL (≈ 6.85 µM). The compound also yielded an MIC PM 6391 in experiment [8] of 0.4 µg/mL (≈ 0.884 µM). Further, the MIC PM 10775 in experiment [9] was at most 0.1 µg/mL. Moreover, the MIC PM 12080 in experiment [10] came out at 0.4 µg/mL (≈ 0.884 µM).
Take `CC(C)(O)[C@H](NC(=O)c1ccc(C#Cc2ccc(CNCc3ccccc3)nc2)cc1)C(=O)NO` [Compound 327]: the MIC MH 6357 in experiment [1] was determined as 0.8 µg/mL (≈ 1.69 µM). The same compound showed an MIC MH 6374 in experiment [2] of 0.8 µg/mL (≈ 1.69 µM). The compound further returned an MIC MH 10720 in [3] of at most 0.1 µg/mL. In experiment [4], this compound displayed an MIC MH 12587 of 1.6 µg/mL (≈ 3.39 µM). Moreover, in [5], the MIC MH 13065 worked out at 0.4 µg/mL (≈ 0.846 µM). The MIC MH 13093 in [6] is 0.8 µg/mL (≈ 1.69 µM). Moreover, the MIC PM 6267 in experiment [7] worked out at 0.4 µg/mL (≈ 0.846 µM). The same compound returned an MIC PM 6391 in experiment [8] of at most 0.1 µg/mL. In addition, the MIC PM 10775 in experiment [9] is at most 0.1 µg/mL. The compound further had an MIC PM 12080 in experiment [10] of at most 0.1 µg/mL.
Take `COc1ccc(CNCc2ccc(C#Cc3ccc(C(=O)N[C@H](C(=O)NO)C(C)(C)O)cc3)cn2)cc1` [Compound 328]: the MIC MH 6357 in [1] was 0.8 µg/mL (≈ 1.59 µM). This compound also returned an MIC MH 6374 in experiment [2] of 0.8 µg/mL (≈ 1.59 µM). The compound also returned an MIC MH 10720 in [3] of at most 0.1 µg/mL. Further, the MIC MH 12587 in experiment [4] turned out to be 1.6 µg/mL (≈ 3.18 µM). In addition, the MIC MH 13065 in [5] turned out to be 0.8 µg/mL (≈ 1.59 µM). Besides, the MIC MH 13093 in experiment [6] is 0.8 µg/mL (≈ 1.59 µM). The compound also returned an MIC PM 6267 in [7] of 0.8 µg/mL (≈ 1.59 µM). Also, the MIC PM 6391 in [8] is at most 0.1 µg/mL. In experiment [9], this compound returned an MIC PM 10775 of at most 0.1 µg/mL. Moreover, the MIC PM 12080 in [10] was at most 0.1 µg/mL.
As for `CC(C)(O)[C@H](NC(=O)c1ccc(C#Cc2ccc(CNCc3ccncc3)nc2)cc1)C(=O)NO` [Compound 329], in experiment [1], the MIC MH 6357 was found to be 0.8 µg/mL (≈ 1.69 µM). In [2], the MIC MH 6374 is 1.6 µg/mL (≈ 3.38 µM). For the same compound, in experiment [3], the MIC MH 10720 was at most 0.1 µg/mL. In [4], this compound yielded an MIC MH 12587 of 3.1 µg/mL (≈ 6.55 µM). The MIC MH 13065 in [5] is 0.8 µg/mL (≈ 1.69 µM). In experiment [6], this compound had an MIC MH 13093 of 1.6 µg/mL (≈ 3.38 µM). The compound also returned an MIC PM 6267 in experiment [7] of 0.8 µg/mL (≈ 1.69 µM). The MIC PM 6391 in experiment [8] amounted to 0.4 µg/mL (≈ 0.845 µM). The compound further yielded an MIC PM 10775 in [9] of at most 0.1 µg/mL. The same compound returned an MIC PM 12080 in [10] of 0.4 µg/mL (≈ 0.845 µM).
`CC(C)(O)[C@H](NC(=O)c1ccc(C#Cc2ccc(CNCc3cccnc3)nc2)cc1)C(=O)NO` [Compound 330] showed an MIC MH 6357 in [1] of 0.8 µg/mL (≈ 1.69 µM). The same compound returned an MIC MH 6374 in experiment [2] of 0.8 µg/mL (≈ 1.69 µM). In addition, the MIC MH 10720 in experiment [3] was 0.2 µg/mL (≈ 0.422 µM). Besides, the MIC MH 12587 in [4] is 3.1 µg/mL (≈ 6.55 µM). The MIC MH 13065 in [5] came to 1.6 µg/mL (≈ 3.38 µM). This compound also yielded an MIC MH 13093 in experiment [6] of 1.6 µg/mL (≈ 3.38 µM). In experiment [7], this compound came in with an MIC PM 6267 of 1.6 µg/mL (≈ 3.38 µM). In addition, the MIC PM 6391 in experiment [8] came to 0.8 µg/mL (≈ 1.69 µM). The same compound returned an MIC PM 10775 in [9] of at most 0.1 µg/mL. Moreover, in experiment [10], the MIC PM 12080 was 0.4 µg/mL (≈ 0.845 µM).
With `CC(C)(O)[C@H](NC(=O)c1ccc(C#Cc2ccc(CNCc3ccccn3)nc2)cc1)C(=O)NO` [Compound 331], the MIC MH 6357 in [1] was 1.6 µg/mL (≈ 3.38 µM). Besides, the MIC MH 6374 in experiment [2] amounted to 3.1 µg/mL (≈ 6.55 µM). In addition, in experiment [3], the MIC MH 10720 came out at 0.4 µg/mL (≈ 0.845 µM). In experiment [4], this compound returned an MIC MH 12587 of 6.3 µg/mL (≈ 13.3 µM). Besides, the MIC MH 13065 in experiment [5] was determined as 3.1 µg/mL (≈ 6.55 µM). Further, the MIC MH 13093 in [6] stood at 6.3 µg/mL (≈ 13.3 µM). Besides, in experiment [7], the MIC PM 6267 was found to be 3.1 µg/mL (≈ 6.55 µM). For the same compound, the MIC PM 6391 in experiment [8] is 1.6 µg/mL (≈ 3.38 µM). Besides, the MIC PM 10775 in experiment [9] was 0.4 µg/mL (≈ 0.845 µM). In experiment [10], this compound gave an MIC PM 12080 of 1.6 µg/mL (≈ 3.38 µM).
As for `CC(C)(O)[C@H](NC(=O)c1ccc(C#Cc2ccc(CNCc3ccco3)nc2)cc1)C(=O)NO` [Compound 332], the MIC MH 6357 in [1] came to 0.4 µg/mL (≈ 0.865 µM). In addition, in [2], the MIC MH 6374 stood at 0.4 µg/mL (≈ 0.865 µM). Besides, the MIC MH 10720 in experiment [3] is at most 0.1 µg/mL. In experiment [4], the MIC MH 12587 is 1.6 µg/mL (≈ 3.46 µM). This compound also gave an MIC MH 13065 in experiment [5] of 0.8 µg/mL (≈ 1.73 µM). This compound displayed an MIC MH 13093 in experiment [6] of 0.8 µg/mL (≈ 1.73 µM). The MIC PM 6267 in experiment [7] is 0.4 µg/mL (≈ 0.865 µM). In addition, in experiment [8], the MIC PM 6391 was found to be 0.4 µg/mL (≈ 0.865 µM). Besides, in [9], the MIC PM 10775 was at most 0.1 µg/mL. The MIC PM 12080 in experiment [10] was 0.2 µg/mL (≈ 0.432 µM).
In experiment [1], `CC(C)(O)[C@H](NC(=O)c1ccc(C#Cc2ccc(CNCC(F)(F)F)nc2)cc1)C(=O)NO` [Compound 333] yielded an MIC MH 6357 of 0.4 µg/mL (≈ 0.861 µM). This compound came in with an MIC MH 6374 in [2] of 0.8 µg/mL (≈ 1.72 µM). Further, the MIC MH 10720 in experiment [3] is at most 0.1 µg/mL. The MIC MH 12587 in experiment [4] was determined as 1.6 µg/mL (≈ 3.44 µM). This compound also returned an MIC MH 13065 in [5] of 0.8 µg/mL (≈ 1.72 µM). The compound further registered an MIC MH 13093 in experiment [6] of 1.6 µg/mL (≈ 3.44 µM). Further, the MIC PM 6267 in experiment [7] stood at 0.4 µg/mL (≈ 0.861 µM). In [8], this compound displayed an MIC PM 6391 of 0.4 µg/mL (≈ 0.861 µM). This compound gave an MIC PM 10775 in [9] of at most 0.1 µg/mL. The MIC PM 12080 in experiment [10] amounted to 0.2 µg/mL (≈ 0.431 µM).
